From patent publication US20060160721A1, “Method of plasma lipidation to prevent, inhibit and/or reverse atherosclerosis” (BAYLOR COLLEGE OF MEDICINE, priority 2004, published 2006) come the findings set out here.

Structures are written as SMILES.

The assay is described as follows: Lipoprotein cholesterophilicity: cholesterol partitioning between lipoproteins and 2-hydroxypropyl-cyclodextrin (CDX). In kind it is binding. The conditions noted are these: isolated LDL and HDL enriched with POPC by DP. How it is done:
Control samples were prepared without detergent or POPC. The samples were dialyzed as described above. […] The samples were incubated for three hours and transferred to Microcon ultracentrifugal filters with an exclusion limit of 30 kDa and centrifuged for 10 min at 12,000 rpm in an Eppendorf microfuge. Aliquots of the retentate and filtrate were analyzed for cholesterol, protein, and phospholipid. The partition coefficient Kp for the distribution of cholesterol between TLP and CDX was calculated from Kp={FCBound×[[…]} Equation 1 where TLPPro is the initial TLP-protein concentration (mg/mL), […], and FCBound, respectively are the free cholesterol concentrations in the retentate, filtrate, and bound to TLP with FCBound calculated as […].

As to `CCCCCCCC/C=C\CCCCCCCC(=O)O[C@H](COC(=O)CCCCCCCCCCCCCCC)COP(=O)([O-])OCC[N+](C)(C)C` [POPC, 1-palmitoyl-2-oleoyl (PO) PC], the “effect of added POPC on the cholesterophilicities of LDL and HDL” value is “dose-dependent increase”.
